In US11415579B2, “Assay for measuring a rate of reaction between a target and a ligand candidate” (Imperial College Innovations Ltd., priority 2016, dated 2022):

Columns and labels:
[1] = biological target: T1, human cyclin-dependent kinase 2 (Cdk2) (Homo sapiens, UniProt P24941); assay: Kinetic thiol consumption assay with wild type Cdk2 (C177); assay type: binding; design: key to Rate enhancement, Cdk2 WT: k(Cdk2) divided by k(model thiol); Rate constant with Cdk2 (k(Cdk2)): unit not given here; conditions: for Rate constant with Cdk2 (k(Cdk2)): 500 μM ligand, 5 μM thiol, phosphate buffer pH 8; for Rate enhancement, Cdk2 WT: no additional mutations; for Rate constant with Cdk2 WT: Protein: Cdk2, cysteine position WT, in h^-1; for k(Cdk2)/k(Cdk2_mut) rate enhancement: model thiol Cdk2[C177A, F80C, K278C]; for k(Cdk2)/k(GSH) rate enhancement: model thiol glutathione
T1 construct: poly-histidine; made in house; host or cells: E. coli
Method in brief: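 His-tagged human Cdk2 (single surface cysteine C177), expressed in E. coli, or a model thiol at 5 μM in degassed phosphate buffer pH 8 was pre-treated with immobilized TCEP beads (2% v/v) before acrylamide addition. Fluorescence (ex/em 380/470 nm) was read after 1 h at room temperature, normalized to DMSO/thiol-only control and plotted versus time.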

Cdk2(H71C) (C177A) = biological target: T2, Cdk2(H71C) (C177A) (Homo sapiens, UniProt P24941, C177A/H71C); assay: Kinetic thiol consumption assay with Cdk2 mutant H71C; assay type: binding; design: key to Rate enhancement, Cdk2 H71C: rate constant with Cdk2 ÷ rate constant with model thiol (fold); conditions: additional mutation C177A; for Rate constant with Cdk2 H71C: Protein: Cdk2, cysteine position H71C, in h^-1
T2 construct: poly-histidine; made in house; host or cells: E. coli
Method in brief: (§1)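 His-tagged single-surface-cysteine Cdk2 mutants (C177A background) from E. coli, 5 μM in degassed phosphate buffer pH 8, pre-treated with immobilized TCEP beads. Fluorescence (ex/em 380/470 nm) read after 1 h at room temperature, normalized to DMSO/thiol-only control; first-order decay fits gave rate constants, divided by model-thiol rate for rate enhancement.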

Cdk2(N272C) (C177A) = biological target: T3, Cdk2(N272C) (C177A) (Homo sapiens, UniProt P24941, C177A/N272C); assay: Kinetic thiol consumption assay with Cdk2 mutant N272C; assay type: binding; design: key to Rate enhancement, Cdk2 N272: rate constant with Cdk2 ÷ rate constant with model thiol (fold); conditions: for Rate enhancement, Cdk2 N272: Cdk2 N272, additional mutation C177A; for Rate constant with Cdk2 N272C: Protein: Cdk2, cysteine position N272C, additional mutation C177A, in h^-1
T3 construct: poly-histidine; made in house; host or cells: E. coli
Method in brief: as §1

Cdk2[C177A, F80C, K278C] = biological target: T4, Cdk2[C177A, F80C, K278C] (Homo sapiens, UniProt P24941, C177A/F80C/K278C); assay: Kinetic thiol consumption assay with mutant Cdk2 as model thiol; assay type: binding; design: unit not given here; conditions: 500 μM ligand, 5 μM thiol, phosphate buffer pH 8
T4 construct: poly-histidine; made in house; host or cells: E. coli
Protocol: A library of 120 acrylamides was screened against a) human cyclin-dependent kinase 2 (Cdk2, which contains one surface exposed cysteine residue—C177), prepared by cloning cDNA into the pRSETA bacterial expression vector to generate a poly-histidine tagged Cdk2 fusion that was purified from E. coli using standard techniques, and b) a model thiol (specific details are given below). The structures of these 120 acrylamides are set out in Table 1, above.
To wells containing 150 μL thiol (Cdk2 or model thiol) (5 μM) in degassed phosphate buffer (pH 8) was added immobilized TCEP beads (2% v/v).
After incubation of the fluorescence plates for 1 hour at room temperature, fluorescence measurements (excitation/emission of 380/470 nm) were taken on a PerkinElmer EnVision multilabel plate reader and processed with EnVision Workstation version 1.12.
Fluorescence measurements were normalized against a DMSO/thiol only control and plotted against time.
Rate constants were calculated using GraphPad software Prism version 6 by fitting a first order exponential decay to the data. The rate constant for each acrylamide with Cdk2 was divided by the rate constant for that fragment with the model thiol to provide the rate enhancement for each ligand candidate.
The model thiol used in Example 2 is a mutant form of human Cdk2 (C177A, F80C, K278C) which contains two engineered surface exposed cysteine residues. Mutations were introduced by site-directed mutagenesis and the resulting cDNA was cloned into the pRSETA bacterial expression vector to generate a poly-histidine tagged Cdk2 fusion that was purified from E. coli using standard techniques.

Cdk2(C177A, F80C) = biological target: T5, Cdk2(C177A, F80C) (Homo sapiens, UniProt P24941, C177A/F80C); assay: Kinetic thiol consumption assay with Cdk2 mutant F80C, incl. kobs versus concentration (Kd, k2); assay type: binding; design: key to Rate enhancement, Cdk2 F80C: Cdk2 rate constant divided by model-thiol rate constant; conditions: additional mutation C177A; for Rate constant with Cdk2 F80C: Protein: Cdk2, cysteine position F80C, in h^-1
T5 construct: poly-histidine; made in house; host or cells: E. coli
Method in brief: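 His-tagged Cdk2(C177A/F80C) from E. coli or model thiol, 5 μM in degassed phosphate buffer pH 8 with TCEP beads, reacted with acrylamide ligands; fluorescence (ex/em 380/470 nm) normalized to DMSO control and fitted to first-order decay for kobs. Kd and k2 obtained from hyperbolic fit of kobs versus ligand concentration.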

Cdk2(T182C) (C177A) = biological target: T6, Cdk2(T182C) (C177A) (Homo sapiens, UniProt P24941, C177A/T182C); assay: Kinetic thiol consumption assay with Cdk2 mutant T182C; assay type: binding; design: key to Rate enhancement, Cdk2 T182C: rate constant with Cdk2 ÷ rate constant with model thiol (fold); conditions: additional mutation C177A; for Rate constant with Cdk2 T182C: Protein: Cdk2, cysteine position T182C, in h^-1
T6 construct: poly-histidine; made in house; host or cells: E. coli
Method in brief: as §1

[2] = Kinetic thiol consumption assay with model thiol glutathione; assay type: physicochemical; design: Rate constant with glutathione (k(GSH)): unit not given here; conditions: for Rate constant with glutathione (k(GSH)): 500 μM ligand, 5 μM thiol, phosphate buffer pH 8; for Rate constant with Glutathione: Protein: Glutathione, cysteine position NA, in h-1
Method in brief: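 First, 5 μM glutathione in degassed phosphate buffer (pH 8) receives immobilized TCEP beads (2% v/v). Then acrylamide is added and plates incubate 1 h at room temperature. Finally, fluorescence (380/470 nm) is normalized and fitted to first-order decay for rate constants.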

Cdk2(R122C) (C177A) = biological target: T7, Cdk2(R122C) (C177A) (Homo sapiens, UniProt P24941, C177A/R122C); assay: Kinetic thiol consumption assay with Cdk2 mutant R122C; assay type: binding; design: key to Rate enhancement, Cdk2 R122C: rate constant with Cdk2 ÷ rate constant with model thiol (fold); conditions: additional mutation C177A; for Rate constant with Cdk2 R122C: Protein: Cdk2, cysteine position R122C, in h-1
T7 construct: poly-histidine; made in house; host or cells: E. coli
Method in brief: as §1

Cdk2(S181C) (C177A) = biological target: T8, Cdk2(S181C) (C177A) (Homo sapiens, UniProt P24941, C177A/S181C); assay: Kinetic thiol consumption assay with Cdk2 mutant S181C; assay type: binding; design: key to Rate enhancement, Cdk2 S181C: rate constant with Cdk2 ÷ rate constant with model thiol (fold); conditions: additional mutation C177A; for Rate constant with Cdk2 S181C: Protein: Cdk2, cysteine position S181C, in h^-1
T8 construct: poly-histidine; made in house; host or cells: E. coli
Method in brief: as §1

Cdk2(S276C) (C177A) = biological target: T9, Cdk2(S276C) (C177A) (Homo sapiens, UniProt P24941, C177A/S276C); assay: Kinetic thiol consumption assay with Cdk2 mutant S276C; assay type: binding; design: key to Rate enhancement, Cdk2 S276C: rate constant with Cdk2 ÷ rate constant with model thiol (fold); conditions: additional mutation C177A; for Rate constant with Cdk2 S276C: Protein: Cdk2, cysteine position S276C, in h^-1
T9 construct: poly-histidine; made in house; host or cells: E. coli
Method in brief: as §1

| Rate constant with Cdk2 (k(Cdk2)) [1] | Rate enhancement, Cdk2 WT [1] | Rate constant with Cdk2 WT [1] | k(Cdk2)/k(Cdk2_mut) rate enhancement [1] | k(Cdk2)/k(GSH) rate enhancement [1] | Rate enhancement, Cdk2 H71C (Cdk2(H71C) (C177A)) | Rate constant with Cdk2 H71C (Cdk2(H71C) (C177A)) | Rate enhancement, Cdk2 N272 (Cdk2(N272C) (C177A)) | Rate constant with Cdk2 N272C (Cdk2(N272C) (C177A)) | Rate constant with Cdk2[C177A, F80C, K278C] (k(Cdk2_mut)) (Cdk2[C177A, F80C, K278C]) | Rate enhancement, Cdk2 F80C (Cdk2(C177A, F80C)) | Rate enhancement, Cdk2 T182C (Cdk2(T182C) (C177A)) | Rate constant with Cdk2 T182C (Cdk2(T182C) (C177A)) | Rate enhancement, Cdk2 R122C (Cdk2(R122C) (C177A)) | Rate constant with Cdk2 R122C (Cdk2(R122C) (C177A)) | Rate enhancement, Cdk2 S181C (Cdk2(S181C) (C177A)) | Rate constant with Cdk2 S181C (Cdk2(S181C) (C177A)) | Rate enhancement, Cdk2 S276C (Cdk2(S276C) (C177A)) | Rate constant with Cdk2 S276C (Cdk2(S276C) (C177A)) | SMILES | Rate constant with glutathione (k(GSH)) [2] | other results |
| --- | --- | --- | --- | --- | --- | --- | --- | --- | --- | --- | --- | --- | --- | --- | --- | --- | --- | --- | --- | --- | --- |
| 0.06444 | 3.558 | 0.06444 | 0.3351 | 3.545 | 2.131 | 0.03859 | 0.4117 | 0.007455 | 0.1923 | 22.32 | 7.09 | 0.1284 | 0.9845 | 0.01783 | 0.9371 | 0.01697 | 1.281 | 0.02319 | C=CC(=O)Nc1ccccc1C(=O)c1ccccc1 [EL-1004] | 0.01818 | Rate constant with Cdk2 F80C (Cdk2(C177A, F80C)): 0.4042; Rate constant with Glutathione [2]: 0.01811 |
| 0.1611 | 3.342 | 0.1611 | 0.9764 | – | 0.5613 | 0.02706 | 0.1844 | 0.008888 | 0.165 | 1.938 | 5.018 | 0.2419 | 0.491 | 0.02367 | 0.5323 | 0.02566 | 0.934 | 0.04503 | C=CC(=O)Nc1ccccc1C#N [EL-1178] | – | Rate constant with Cdk2 F80C (Cdk2(C177A, F80C)): 0.09345 |
| 0.02965 | – | – | 0.9818 | 0.8399 | – | – | – | – | 0.0302 | – | – | – | – | – | – | – | – | – | C=CC(=O)N1CCn2c(C(=O)NC3CC3)ccc2C1C (stereo not drawn) [CA-040] | 0.0353 | – |
| 0.02299 | – | – | 2.082 | 1.4 | – | – | – | – | 0.01104 | – | – | – | – | – | – | – | – | – | C=CC(=O)N(c1cccc2ncccc12)C1CCC1 [CA-032] | 0.01642 | – |
| 0.0034 | – | – | 0.2652 | 0.3001 | – | – | – | – | 0.01283 | – | – | – | – | – | – | – | – | – | C=CC(=O)N1CCCCCC1C/C=C/c1ccccc1 (stereo not drawn) [CA-096] | 0.01134 | – |
| – | 1.315 | 0.002918 | – | – | 12.95 | 0.02873 | 5.777 | 0.01282 | – | 7.7693E−12 | 34.33 | 0.07618 | 0.411 | 0.000912 | 4.709 | 0.01045 | 74.76 | 0.1659 | O=C(c1ccccc1)[C@@H]1O[C@H]1c1ccccc1 [EN006] | – | Rate constant with Cdk2 F80C (Cdk2(C177A, F80C)): 1.724E−14; Rate constant with Glutathione [2]: 0.002219 |
| 0.00274 | – | – | 1.317 | 0.3553 | – | – | – | – | 0.00208 | – | – | – | – | – | – | – | – | – | C=CC(=O)N1CCC2(CC1)NC(=O)C1(CCCCC1)N2 [CA-129] | 0.00771 | – |
| 0.00879 | – | – | 1.851 | 5.108 | – | – | – | – | 0.00475 | – | – | – | – | – | – | – | – | – | C=CC(=O)N(C1CC1)C1CCCCC1C1CCCCC1 (stereo not drawn) [CA-081] | 0.00172 | – |
| 0.00372 | 1.03 | 0.003735 | – | 1.021 | 0 | – | 0.8296 | 0.003008 | – | 0.4719 | 2.74 | 0.009935 | 0.7394 | 0.002681 | 0.7592 | 0.002753 | 0.4186 | 0.001518 | C#CCN1CCCN(C(=O)C=C)CC1 [CA-196] | 0.00365 | Rate constant with Cdk2 F80C (Cdk2(C177A, F80C)): 0.001711; Rate constant with Glutathione [2]: 0.003626 |
| 0.00381 | 1.268 | 0.003813 | – | 1.254 | 0.6721 | 0.002021 | 1.56 | 0.004691 | – | 0 | 6.867 | 0.02065 | 1.368 | 0.004115 | 3.018 | 0.009074 | 0.6169 | 0.001855 | C=CC(=O)N(C)C1C2CCOC2C1(C)C (stereo not drawn) [CA-182] | 0.00304 | Rate constant with Glutathione [2]: 0.003007 |
| 0.2899 | – | – | 18.23 | 1.26 | – | – | – | – | 0.0159 | – | – | – | – | – | – | – | – | – | C=CC(=O)N(Cc1ccco1)Cc1ccco1 [CA-099] | 0.23 | – |
